# Laboratory results reported in patent US20070123514A1, “Methods of modulating neurotrophin-mediated activity” (PainCeptor Pharma Corporation, priority 2005, published 2007).
# Entries after “also recorded” stand apart in the source; their conditions may differ.
# Experiments:
# [1] = test system: NGF-induced neurite outgrowth, PC12 cells; test: NGF-induced neurite outgrowth of PC12 cells; type: cell-based, rat; settings: 25 μM compound, 5 ng/ml NGF, mean±SEM, n=8; no inhibition=100%, maximal inhibition=0%
# Description: This assay was run as a further functional marker of NGF antagonism and takes advantage of the differentiation of PC12 cells (neurite outgrowth) induced by NGF. Cultures of PC12 cells were grown on Terasaki plates pre-coated with poly-D-lysine. Cells were exposed to NGF (1-50 (preferably 5) ng/ml) to induce neurite outgrowth as described elsewhere [L A Greene & A S Tischler, Establishment of a noradrenergic clonal line of rat adrenal pheochromocytoma cells which respond to nerve growth factor, Proc Natl Acad Sci USA. 1976 July; 73(7): 2424-2428]. In addition to NGF, cells were exposed to varying concentration of the compounds or vehicle. Following 4 days of exposure to NGF in the presence or absence of compound, neurite outgrowth was quantified. A neurite was scored if its caliber from origin to terminal was approximately the same and the length was equal to or greater than 1.5 the cell body diameter. The number of neurite bearing cells per total number of viable cells was calculated for each condition; the number of cells with neurites in the presence of NGF (without compound exposure) was considered to represent maximal (100%) outgrowth, to which the inhibitory effect of compounds of the invention on NGF-induced outgrowth was compared.
# Male Sprague-Dawley rats [2] = test: Seltzer or Partial Nerve Ligation (PNL) model of neuropathic pain, mechanical allodynia; type: in vivo, rat; settings: 25 mg/kg i.p., 90 min post-treatment
# Source text: The Partial Nerve Ligation (PNL) model (Seltzer et al., Pain 1990; 43:205) was used to induce chronic neuropathic pain. Male Sprague-Dawley rats were anesthetized with isoflurane, and injury to the sciatic nerve was achieved by tying a tight ligature around ⅓ to ½ of the sciatic nerve just proximal to the nerve's trifurcation in the mid-thigh. Animals develop thermal and mechanical hyperalgesia and allodynia, as well as a long-lasting spontaneous pain or dysesthesia after the nerve injury.
# Mechanical allodynia testing: Pre- and post-injury baselines as well as post-treatment values (vehicle or compound-treated animals) for mechanical allodynia were evaluated using Von Frey filaments (Stoelting, Wood Dale, Ill., USA) with varying stiffness. […] The mean and standard error of the mean (SEM) were determined for each paw in each treatment group (ipsilateral/injured paw and contralateral/non-injured paw). […] Effects of compounds were evaluated two weeks after the injury. Compound or vehicle was administered (i.p. or s.c.) and effects on mechanical allodynia were measured at different time points after dosing (e.g., 30, 60 and 90 min.).
# Data analysis: Statistical analyses were conducted using Prism™ 4.01 (GraphPad, San Diego, Calif., USA). Mechanical hypersensitivity of the injured paw was determined by comparing contralateral to ipsilateral paw values within the vehicle group at each time point. […]
# Male Sprague-Dawley rats [3] = test: Formalin model of acute tonic pain; type: in vivo, rat
# Description: Male Sprague-Dawley rats were given a subcutaneous injection of 50 μl of 2.5% formalin into the plantar surface of one hindpaw using a 27 gauge syringe needle, and nociceptive responses were measured for the next 60 min. Compound or vehicle was administered (ip. or s.c.) 15-45 minutes prior to the formalin injection. A nociceptive score was determined for each 5 min block by measuring the amount of time spent in each of four behavioral categories: 0, the injected hindpaw is indistinguishable from that of the contralateral paw; 1, the injected paw has little or no weight placed on it; 2, the injected paw is elevated and is not in contact with any surface; 3, the injected paw is licked, bitten, or shaken. A weighted nociceptive score, ranging from 0 to 3 was calculated by multiplying the time spent in each category by the category weight, summing these products, and dividing by the total time for each 5 min block of time (Coderre et al., Pain 1993; 54: 43). On the basis of the resulting response patterns, 2 phases of nociceptive behaviour were identified and scored: first phase (P1; 0-5 min) and second phase (P2; 11-40 min).
# Statistical analysis was performed using Prism™ 4.01 software package (GraphPad, San Diego, Calif., USA). The difference in response levels between treatment groups and control vehicle group was analyzed using an ANOVA followed by Bonferroni's method for post-hoc pair-wise comparisons. A p value <0.05 was considered to be significant.
# Animals were treated with vehicle (VEH) or Compound 5 (50 mg/kg i.p.; CMP) 10-20 minutes before the intraplantar injection of 2.5% formalin, as described above.
smiles,measurement,setting,value
"O=C(O)c1ccc(Cl)c(N2C(=O)c3cccc4cc([N+](=O)[O-])cc(c34)C2=O)c1 [Compound 5, 4-Chloro-3-(5-nitro-1,3-dioxo-1H,3H-benzo[de]isoquinolin-2-yl)-benzoic acid]","NGF-induced neurite outgrowth, % of NGF-only control",[1],65%±17%
same,antinociceptive effect / reversal of mechanical allodynia in partial nerve ligation model,"Male Sprague-Dawley rats [2]; result in words, 25 mg/kg",significant reversal of the mechanical allodynia; also recorded: antinociceptive effects
same,"mechanical allodynia, Von Frey response threshold of injured paw","Male Sprague-Dawley rats [2]; vehicle 2.17±0.19 g, n=7",5.14 ± 0.36 g
same,"formalin-induced spontaneous responses, Phase I","Male Sprague-Dawley rats [3]; 50 mg/kg i.p. 10-20 min before 2.5% formalin, vehicle 148±9, n=8",59±15
same,"formalin-induced spontaneous responses, Phase II","Male Sprague-Dawley rats [3]; 50 mg/kg i.p. 10-20 min before 2.5% formalin, vehicle 180±6, n=8",61±19
same,antinociceptive effect in the Formalin Test,"Male Sprague-Dawley rats [3]; 50 mg/kg i.p., result in words, p<0.001 vs vehicle, 50 mg/kg",significant antinociceptive effects
